Patent US10072304B2, “Nuclear localization of Src-family tyrosine kinases is required for growth factor-induced euchromatinization” (National University Corporation Chiba University, priority 2009, dated 2018)

Tested on: SYF cells
Assay: Anti-pTyr immunofluorescent staining of tyrosine phosphorylation in SYF cells
Assay type: cell-based, mouse
Conditions: 3 mM Na3VO4 for 3 h, FIG. 46
Description: COS-1, HeLa cells (Japanese Collection of Research Bioresources, Osaka), MCF-7 (provided by H. Saya), A431 (provided by M. N. Fukuda), HEK293 (provided by M. Tagawa), HCT116 (provided by T. Tomonaga), and SYF ([37]; provided by M. Okada and S. Nada) cells were cultured in Iscove's modified DME containing 5% fetal bovine serum (FBS). Cells were transiently transfected with 0.5 μg of plasmid vector using Trans IT Transfection reagent (Mirus) or with 1 μg of plasmid vector using linear polyethylenimine (25 kDa) (Polyscience, Inc.). For growth factor stimulation, COS-1 cells were starved under low serum conditions (0.05% FBS) for 24 h and restimulated with serum (5% FBS). […]
Confocal and Nomarski differential-interference-contrast images were obtained using a Fluoview FV500 confocal laser scanning microscope with a 40×1.00 NA oil and a 100×1.35 NA oil immersion objective (Olympus, Tokyo) and an LSM 510 confocal laser scanning microscope with a 63×1.40 NA oil immersion objective (Zeiss), as described. […] Emission signals were detected between 505 and 525 nm for fluorescein, at more than 560 nm for rhodamine and more than 610 nm for PI [44]. […] Fluorescence intensity plots of anti-histone H3K4me3, anti-ATF-2 pT69/71 and anti-HP1α antibody and PI staining (see FIGS. 18B, 19B, and 20B, respectively) were generated using Fluoview version 4.3 software (Olympus, Tokyo). […]

[Na+].[Na+].[Na+].[O]=[V]([O-])([O-])[O-] [Na3VO4, sodium orthovanadate]
tyrosine phosphorylation: increased tyrosine phosphorylation at levels comparable to those in COS-1 cells
